In PubChem BioAssay AID520 (NMMLSC, 2006):
Activity calls are given as the source filed them. The rule behind the calls is not given here.

Target: N-formyl peptide receptor 2 (Homo sapiens) (UniProt P25090)
Assay: concentration-dependent FPRL1 ligand displacement – cell-based, FPR counter-screen, fluorescent ligand, dose response (AID 520)
Conditions: FPRL1-expressing cells, fluorescent ligand binding inhibition; for Ki: measured here: FPRL1 binding Ki

N-formyl peptide receptor 2 (Homo sapiens), sequence (P25090 whole entry, looked up): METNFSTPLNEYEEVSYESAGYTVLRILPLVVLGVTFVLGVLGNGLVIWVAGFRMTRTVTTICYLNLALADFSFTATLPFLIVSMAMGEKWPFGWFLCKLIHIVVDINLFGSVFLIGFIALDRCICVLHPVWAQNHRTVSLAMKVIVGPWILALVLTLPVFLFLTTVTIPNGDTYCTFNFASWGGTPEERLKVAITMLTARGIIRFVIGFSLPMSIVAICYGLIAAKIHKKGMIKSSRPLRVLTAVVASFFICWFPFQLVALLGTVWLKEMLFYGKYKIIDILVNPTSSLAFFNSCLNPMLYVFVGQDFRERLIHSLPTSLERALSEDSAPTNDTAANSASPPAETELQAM

**Q.** Which Ki does the source give for COc1ccccc1-n1c(CNC(=O)c2ccco2)nnc1SCC(=O)Nc1ccc(F)cc1 here?
**A.** Its Ki is greater than 40.3 µM.

**Q.** COc1cccc2c1C(=O)c1c(O)c3c(c(O)c1C2=O)C[C@@](O)(C(C)=O)C[C@@H]3O[C@H]1C[C@H](N)[C@H](O)[C@H](C)O1 was tested. Which Ki did it give?
**A.** Its Ki is 15.2 µM.

**Q.** With COc1ccc(C)cc1NC(=O)C1CCCCC1C(=O)O (centres undefined) as the compound, how does the Ki read?
**A.** Its Ki is greater than 40.3 µM.

**Q.** With CCOc1cccc(/C(O)=C2/C(=O)C(=O)N(Cc3cccnc3)C2c2ccco2)c1 (centres undefined) as the compound, how does the IC50 read?
**A.** Its IC50 is > 66.7 µM (inactive).

**Q.** What about the Ki of the same compound?
**A.** The Ki was greater than 40.3 µM.

**Q.** With CCN1C(=O)/C(=C2\SC(=S)N(CCCOC)C2=O)c2ccccc21 as the compound, how does the Ki read?
**A.** The Ki was greater than 40.3 µM.

**Q.** For COc1ccccc1Oc1c(C)oc2cc(OC(=O)c3ccco3)ccc2c1=O, which Ki is on record?
**A.** The Ki was greater than 40.3 µM.

**Q.** For O=C(C1=C(O)C(=O)N(c2ncccn2)C1c1ccc(Cl)c(Cl)c1)c1ccco1 (centres undefined), which IC50 is on record?
**A.** Its IC50 is > 66.7 µM (inactive).

**Q.** And the Ki?
**A.** Its Ki is greater than 40.3 µM.

**Q.** Which Ki does the source give for COc1ccc(-c2cc(C(F)(F)F)nc(N3CCN(c4ccccc4)CC3)n2)cc1OC here?
**A.** Its Ki is greater than 40.3 µM.

**Q.** Which Ki does the source give for CCOC(=O)Cc1cc(=O)n2[nH]c(C)c(-c3ccc(OC)cc3)c2n1 here?
**A.** Its Ki is greater than 40.3 µM.

**Q.** For COCCN1C(=O)C(O)=C(C(=O)c2cccs2)C1c1ccccc1 (centres undefined), which IC50 is on record?
**A.** The IC50 was > 66.7 µM (inactive).

**Q.** What about the Ki of the same compound?
**A.** Its Ki is greater than 40.3 µM.

**Q.** CC(=O)OCCNc1cc(N2CCN(C)CC2)c2noc3c2c1C(=O)c1ccccc1-3 was tested. Which Ki did it give?
**A.** Its Ki is 4.2 µM.

**Q.** With CCOc1ccc(/C(O)=C2/C(=O)C(=O)N(CC3CCCO3)C2c2ccc(C)o2)cc1 (centres undefined) as the compound, how does the IC50 read?
**A.** The IC50 was > 66.7 µM (inactive).

**Q.** And the Ki?
**A.** The Ki was greater than 40.3 µM.

**Q.** COc1ccc(OC)c(C2/C(=C(/O)c3ccccc3)C(=O)C(=O)N2Cc2ccco2)c1 (centres undefined) was tested. Which IC50 did it give?
**A.** Its IC50 is > 66.7 µM (inactive).

**Q.** And the Ki?
**A.** Its Ki is greater than 40.3 µM.

**Q.** What does the source list for O=C1C(C23CC4CC(CC(C4)C2)C3)C(=O)N(c2ccccc2)N1c1ccccc1?
**A.** IC50: > 66.7 µM (inactive); Ki: > 40.3 µM

**Q.** How did the Ki turn out when CCCNC(=O)CS(=O)(=O)Cc1nc(-c2cccc(OC)c2)oc1C was run?
**A.** The Ki was greater than 40.3 µM.

**Q.** Which Ki does the source give for Cc1c(C(=O)NC2CCCc3ccccc32)oc2ccc(S(=O)(=O)N3CCOCC3)cc12 (centres undefined) here?
**A.** The Ki was greater than 40.3 µM.

**Q.** How did the Ki turn out when CCOC(=O)CCn1nc(-c2ccc(Cl)cc2)cc1N was run?
**A.** The Ki was greater than 40.3 µM.

**Q.** How did the IC50 turn out when CCCOc1ccc(C2C(C(=O)c3ccc(C)o3)=C(O)C(=O)N2Cc2cccnc2)cc1 (centres undefined) was run?
**A.** Its IC50 is > 66.7 µM (inactive).

**Q.** And the Ki?
**A.** Its Ki is greater than 40.3 µM.

**Q.** How did the IC50 turn out when COCCCN1C(=O)C(=O)/C(=C(/O)c2ccc(OC)cc2C)C1c1cccnc1 (centres undefined) was run?
**A.** The IC50 was > 66.7 µM (inactive).

**Q.** And the Ki?
**A.** The Ki was greater than 40.3 µM.

**Q.** CCOc1ccc(C2C(C(=O)c3ccco3)=C(O)C(=O)N2Cc2cccnc2)cc1 (centres undefined) was tested. Which IC50 did it give?
**A.** Its IC50 is > 66.7 µM (inactive).

**Q.** And the Ki?
**A.** Its Ki is greater than 40.3 µM.

**Q.** Which Ki does the source give for Cc1[nH]n2c(=O)c(C#N)c(-c3ccccc3)nc2c1-c1ccccc1 here?
**A.** The Ki was greater than 40.3 µM.

**Q.** COc1cccc(/C(O)=C2/C(=O)C(=O)N(Cc3cccnc3)C2c2ccco2)c1 (centres undefined) was tested. Which IC50 did it give?
**A.** The IC50 was > 66.7 µM (inactive).

**Q.** What about the Ki of the same compound?
**A.** Its Ki is greater than 40.3 µM.

**Q.** COc1ccc(-c2cn3cccnc3n2)cc1NC(=O)CC(C)C was tested. Which Ki did it give?
**A.** The Ki was 27.2 µM.

**Q.** Which IC50 does the source give for O=C(C1=C(O)C(=O)N(CCOCCO)C1c1cccs1)c1cccs1 (centres undefined) here?
**A.** Its IC50 is > 66.7 µM (inactive).

**Q.** And the Ki?
**A.** Its Ki is greater than 40.3 µM.

**Q.** How did the Ki turn out when Clc1ccc(Cc2nn3c(-c4ccncc4)nnc3s2)cc1 was run?
**A.** The Ki was greater than 40.3 µM.

**Q.** CN1CCN(CCCNC(=O)Nc2cccc3ccccc23)CC1 was tested. Which Ki did it give?
**A.** Its Ki is greater than 40.3 µM.

**Q.** COc1ccc(-c2cc(C(F)(F)F)nc(N3CCCCC3)n2)cc1OC was tested. Which Ki did it give?
**A.** The Ki was greater than 40.3 µM.

**Q.** Which Ki does the source give for CCCOc1ccc2c(=O)c(N3C(=O)c4ccccc4C3=O)c(C)oc2c1 here?
**A.** Its Ki is greater than 40.3 µM.

**Q.** How did the Ki turn out when COc1ccc(NC(=O)C2C(=O)NC3(C)CC2c2ccccc2O3)cc1 (centres undefined) was run?
**A.** The Ki was greater than 40.3 µM.

**Q.** For CCOC(=O)c1ccc(NC(=O)Nc2ccc3c4c(cccc24)C(=O)N3CC)cc1, which Ki is on record?
**A.** Its Ki is greater than 40.3 µM.

**Q.** For COCc1cc(C2C(C(=O)c3ccco3)=C(O)C(=O)N2CCOCCO)ccc1O (centres undefined), which IC50 is on record?
**A.** The IC50 was > 66.7 µM (inactive).

**Q.** What about the Ki of the same compound?
**A.** The Ki was greater than 40.3 µM.

**Q.** Cc1[nH]n2c(=O)c3c(nc2c1-c1ccccc1)CCC3 was tested. Which Ki did it give?
**A.** The Ki was greater than 40.3 µM.

**Q.** Which IC50 does the source give for COc1ccc(OC)c(C2C(C(=O)c3ccco3)=C(O)C(=O)N2CCCN2CCOCC2)c1 (centres undefined) here?
**A.** Its IC50 is > 66.7 µM (inactive).

**Q.** And the Ki?
**A.** The Ki was greater than 40.3 µM.

**Q.** How did the Ki turn out when CCCS(=O)(=O)N1CCCC(C(=O)N2CCC(Cc3ccccc3)CC2)C1 (centres undefined) was run?
**A.** Its Ki is greater than 40.3 µM.

**Q.** For CC(C)CN(CC(C)C)C(=O)CS(=O)(=O)Cc1ccccc1, which Ki is on record?
**A.** Its Ki is greater than 40.3 µM.

**Q.** Cc1c(CNCc2cccs2)c(C(=O)O)c(C)n1Cc1ccccc1 was tested. Which Ki did it give?
**A.** The Ki was greater than 40.3 µM.

**Q.** Which Ki does the source give for Cc1ccc(Nc2nc(C3CC3)cs2)cc1 here?
**A.** The Ki was greater than 40.3 µM.

**Q.** For CCC(CC)C(=O)Nc1c2cnn(-c3ccccc3)c2nc(=O)n1-c1ccccc1, which Ki is on record?
**A.** Its Ki is greater than 40.3 µM.

**Q.** How did the Ki turn out when O=C(Nc1ccc(Nc2ccccc2)cc1)c1ccc(Br)o1 was run?
**A.** Its Ki is greater than 40.3 µM.

**Q.** For Cc1nc2c(C#N)c[nH]n2c(=O)c1Cc1ccccc1, which Ki is on record?
**A.** The Ki was greater than 40.3 µM.

**Q.** Cc1cc(SCC(N)=O)nc(SCC(=O)c2ccccc2)n1 was tested. Which Ki did it give?
**A.** Its Ki is greater than 40.3 µM.

**Q.** CCCC(=O)Nc1c2c(nn1-c1ccc(OC)cc1)CS(=O)C2 (centres undefined) was tested. Which Ki did it give?
**A.** The Ki was greater than 40.3 µM.

**Q.** How did the Ki turn out when Cc1ccc(NC(=O)C2CCCN2S(=O)(=O)c2cccc3cccnc23)cc1F (centres undefined) was run?
**A.** The Ki was greater than 40.3 µM.

**Q.** With CCc1nn2c(=O)cc(CSc3nc4sc5c(c4c(=O)n3C)CCCC5)nc2s1 as the compound, how does the Ki read?
**A.** The Ki was greater than 40.3 µM.

**Q.** COc1ccc(OC)c(C(=O)c2nc3c(n2O)CCCCC3)c1 was tested. Which Ki did it give?
**A.** The Ki was greater than 40.3 µM.

**Q.** CCOC(=O)C1CCN(Cc2ccc(C(=O)OC)cc2)CC1 was tested. Which Ki did it give?
**A.** Its Ki is greater than 40.3 µM.
